Laboratory results taken from patent US9273151B2, “Proteinaceous-substance-binding low-molecular-weight compound” (Kaneka Corporation, priority 2011, dated 2016).

System: IgG-Fc (Fc fragment of IgG preparation derived from human plasma)
Assay: Biacore 3000 surface plasmon resonance analysis of the affinity of the low-molecular-weight compound for IgG-Fc
Conditions: IgG-Fc immobilized on sensor chip CM5; compound 25 μM to 100 μM in running buffer pH 7.4, 5% DMSO; 25° C.; 1:1 binding model fit
Protocol: An Fc fragment was prepared by fragmenting an IgG preparation derived from human plasma as a raw material into a Fab fragment and an Fc fragment using papain and separating the Fc fragment only to be purified. Gammagard, which is an IgG preparation derived from human plasma and which was manufactured by Baxter, was dissolved into a buffer solution for papain digestion which contained 0.1 M AcOH—AcONa, 2 mM EDTA and 1 mM cysteine and of which pH was 5.5, and Papain Agarose from papaya latex (papain-immobilized agarose, manufactured by SIGMA) was added to the solution. The mixture was mixed using a rotator and incubated at 37° C. for about 8 hours. The reaction mixture, which contained both of a Fab fragment and an Fc fragment, was separated from the papain-immobilized agarose. The Fc fragment was separated to be purified from the reaction mixture by affinity chromatography using Protein A column (MabSelect, manufactured by GE Healthcare Company). Hereinafter, the Fc fragment is referred to as “IgG-Fc”. Specifically, the reaction mixture, which contained both of a Fab fragment and an Fc fragment, was diluted with a phosphate buffer (20 mM NaH2PO4—Na2HPO4, 150 mM NaCl, pH 7.4) so that the pH became about 7.4. The diluted mixture was added to a Protein A column which was equilibrated using a phosphate buffer, and the column was washed with a phosphate buffer. Then, an IgG-Fc solution was obtained by using an eluent buffer B (100 mM citric acid, pH 3.0) to elute the IgG-Fc. The above-described protein purification by chromatography was carried out using AKTAprime plus system manufactured by GE Healthcare Company.
The analysis of the affinity between the low-molecular-weight compound and IgG-Fc was carried out using Biacore 3000, which was manufactured by GE Healthcare Company and in which surface plasmon resonance was utilized, under the following protocol. All of the sensor chip and reagents used in the following protocol were manufactured by GE Healthcare Company. The low-molecular-weight compounds (2) to (17) of which binding properties were evaluated were obtained from Namiki Shoji Co., Ltd.
The IgG-Fc obtained in the Example 1 was diluted 50-fold with a buffer for immobilization (10 mM CH3COOH—CH3COONa, pH 4.5), and the IgG-Fc was immobilized on a sensor chip CM5 in accordance with the protocol provided with Biacore 3000. The immobilization of the IgG-Fc on the sensor chip CM5 was carried out by amine coupling method using N-hydroxysuccinimide (NHS) and N-ethyl-N′-(3-dimethylaminopropyl)carbodiimide hydrochroride (EDC), and ethanolamine was used for blocking. In addition, a reference cell was prepared as a negative control by activating other flow cell on a chip by EDC/NHS and then immobilizing ethanolamine.
A ligand of any one of the low-molecular-weight compounds (2) to (17) was flowed on the above sensor chip to detect an interaction. Specifically, each of the low-molecular-weight compound (2) to (17) to be measured was diluted with a running buffer (20 mM NaH2PO4—Na2HPO4, 150 mM NaCl, 0.005% P-20, 5% DMSO, pH 7.4) to prepared three or four kinds of diluted solutions of which concentrations were different each other within the range of 25 μM to 100 μM with respect to each compound. The prepared solutions of the each low-molecular-weight compound were added to the sensor chip at a flow rate of 30 μL/min for 120 seconds. Binding reaction curves were orderly observed at the time of addition (binding phase, for 120 seconds) and after the addition (dissociation phase, for 120 second) at the measurement temperature of 25° C. After the each observation, 40 mM NaOH was added for 15 seconds to regenerate the sensor chip. A binding reaction curve of a sample containing DMSO was corrected using a Biacore correction tool manufactured by GE Healthcare Company with respect to the obtained binding curves (see FIGS. 1 to 4). […]

SMILES | KA × 10^4 (M^−1), coupling/binding constant KA=Kon/Koff
Nc1ccc(Oc2nc(Oc3ccc(N)cc3)c(F)c(Oc3ccc(N)cc3)c2F)cc1 [(12)] | 0.2 × 10^4 M^−1
O=C(CSc1nnc(SCc2cccc3ccccc23)s1)c1ccc(O)c(O)c1 [(5)] | 4.6 × 10^4 M^−1
CN(c1ccc(O)cc1)c1nc(S(=O)(=O)c2ccccc2)c(Cl)s1 [(14)] | 0.16 × 10^4 M^−1
Oc1ccc(-c2csc(COc3ccccc3)n2)cc1O [(10)] | 0.4 × 10^4 M^−1
Cc1ccc(C(=O)C(C)Sc2nnnn2-c2ccc(O)cc2)cc1 (stereo not shown) [(15)] | 0.12 × 10^4 M^−1
Cc1ccc(OCc2nc(CSc3nc(N)cc(N)n3)cs2)cc1 [(16)] | 0.06 × 10^4 M^−1
CC(Sc1nnnn1-c1ccc(O)cc1)C(=O)c1ccc(F)c(F)c1 (stereo not shown) [(13)] | 0.17 × 10^4 M^−1
CN(c1ccc(O)cc1)c1ncc([N+](=O)[O-])c(N(C)c2ccc(O)cc2)n1 [(7)] | 0.96 × 10^4 M^−1
CC(C)(c1ccc(O)cc1)c1cccc(C(C)(C)c2ccc(O)cc2)c1 [(6)] | 2.9 × 10^4 M^−1
O=C1N/C(=C\c2ccc(O)c(Br)c2)C(=O)N1Cc1ccc(Cl)cc1 [(9)] | 0.48 × 10^4 M^−1
O=C(CSc1nnc2sc3ccccc3n12)c1ccc(O)c(O)c1 [(4)] | 5.1 × 10^4 M^−1
Nc1cccc(Oc2cccc(Oc3cccc(N)c3)c2)c1 [(8)] | 0.95 × 10^4 M^−1
O=C(CSc1ncnc2c1cnn2-c1ccccc1)c1ccc(O)c(O)c1 [(3)] | 5.1 × 10^4 M^−1
Cc1cc(C(=O)CSc2nc(N)cc(N)n2)c(C)n1Cc1ccc2c(c1)OCO2 [(17)] | 0.05 × 10^4 M^−1
O=C1Sc2c(S(=O)(=O)Nc3ccc(O)cc3)cc(S(=O)(=O)Nc3ccc(O)cc3)c3cccc1c23 [(11)] | 0.37 × 10^4 M^−1
O=c1cc(CSc2ncnc3c2cnn3-c2ccccc2)c2cc(O)c(O)cc2o1 [compound (2)] | 13 × 10^4 M^−1
